According to article PMC5047880, “Characterization of Linoleate 10-Hydratase of Lactobacillus plantarum and Novel Antifungal Metabolites” (Frontiers in Microbiology, 2016):

Tests used:
Assay in all cases: activity of apoenzyme after addition of FAD, LC-APPI-MS
Format in all cases: biochemical
Settings in all cases: 0.2 mM FAD, 4°C, 24 h; linoleic acid as substrate, MES pH 6.1
[1] = molecular target: T1, LAH of Lactobacillus hammesii (linoleate 10-hydratase, 10-LAH) (Levilactobacillus hammesii, UniProt A0A1I9RYV0)
T1 construct: full length, 564 residues; His-tag from pET-28a(+) (BamHI/HindIII); primers encode MVKTKAVM... and ...ATKRMFS
T1 sequence (A0A1I9RYV0 1-564): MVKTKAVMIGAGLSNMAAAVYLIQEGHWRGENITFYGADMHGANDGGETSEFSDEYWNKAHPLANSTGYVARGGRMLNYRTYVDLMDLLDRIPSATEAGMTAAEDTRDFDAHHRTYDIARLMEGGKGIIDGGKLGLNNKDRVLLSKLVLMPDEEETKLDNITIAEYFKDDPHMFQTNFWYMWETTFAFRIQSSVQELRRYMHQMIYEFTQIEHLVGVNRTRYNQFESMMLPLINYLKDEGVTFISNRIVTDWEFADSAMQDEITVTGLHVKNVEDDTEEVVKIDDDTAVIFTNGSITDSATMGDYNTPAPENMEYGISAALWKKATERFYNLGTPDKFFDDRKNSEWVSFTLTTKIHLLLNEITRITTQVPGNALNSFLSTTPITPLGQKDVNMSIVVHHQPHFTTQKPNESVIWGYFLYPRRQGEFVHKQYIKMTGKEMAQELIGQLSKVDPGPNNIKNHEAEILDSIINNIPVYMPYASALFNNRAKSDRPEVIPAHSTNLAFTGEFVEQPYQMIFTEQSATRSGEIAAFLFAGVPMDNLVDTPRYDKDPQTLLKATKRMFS

[2] = molecular target: T2, LAH of Lactobacillus reuteri (linoleate 10-hydratase, 10-LAH) (Limosilactobacillus reuteri, UniProt A0A1I9RYU8)
T2 construct: full length, 590 residues; His-tag from pET-28a(+) (NdeI/NotI); primers encode MYYSNGNY... and ...MEEQHLL
T2 sequence (A0A1I9RYU8 1-590): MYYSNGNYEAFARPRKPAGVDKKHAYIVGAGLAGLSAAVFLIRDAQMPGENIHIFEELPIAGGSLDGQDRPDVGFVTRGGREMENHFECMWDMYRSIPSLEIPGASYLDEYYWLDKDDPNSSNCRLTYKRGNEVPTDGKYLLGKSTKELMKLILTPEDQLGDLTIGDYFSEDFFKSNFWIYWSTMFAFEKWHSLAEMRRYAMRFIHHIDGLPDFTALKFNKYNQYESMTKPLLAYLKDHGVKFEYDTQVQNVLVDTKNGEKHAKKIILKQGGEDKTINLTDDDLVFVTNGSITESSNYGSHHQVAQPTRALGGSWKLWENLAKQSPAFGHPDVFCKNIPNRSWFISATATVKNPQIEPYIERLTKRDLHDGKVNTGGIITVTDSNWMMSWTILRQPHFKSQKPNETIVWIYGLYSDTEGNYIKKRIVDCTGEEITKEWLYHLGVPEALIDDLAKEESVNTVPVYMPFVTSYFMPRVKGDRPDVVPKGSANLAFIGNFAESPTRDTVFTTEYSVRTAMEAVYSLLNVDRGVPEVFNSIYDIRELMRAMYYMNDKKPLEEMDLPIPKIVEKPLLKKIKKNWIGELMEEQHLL

[3] = molecular target: T3, LAH of Lactobacillus plantarum (linoleate 10-hydratase, 10-LAH) (Lactiplantibacillus plantarum, UniProt A0A1I9RYU9)
T3 construct: full length, 564 residues; His-tag from pET-28a(+) (EcoRI/NotI); primers encode MVKSKAIM... and ...ATKKMFD
T3 sequence (A0A1I9RYU9 1-564): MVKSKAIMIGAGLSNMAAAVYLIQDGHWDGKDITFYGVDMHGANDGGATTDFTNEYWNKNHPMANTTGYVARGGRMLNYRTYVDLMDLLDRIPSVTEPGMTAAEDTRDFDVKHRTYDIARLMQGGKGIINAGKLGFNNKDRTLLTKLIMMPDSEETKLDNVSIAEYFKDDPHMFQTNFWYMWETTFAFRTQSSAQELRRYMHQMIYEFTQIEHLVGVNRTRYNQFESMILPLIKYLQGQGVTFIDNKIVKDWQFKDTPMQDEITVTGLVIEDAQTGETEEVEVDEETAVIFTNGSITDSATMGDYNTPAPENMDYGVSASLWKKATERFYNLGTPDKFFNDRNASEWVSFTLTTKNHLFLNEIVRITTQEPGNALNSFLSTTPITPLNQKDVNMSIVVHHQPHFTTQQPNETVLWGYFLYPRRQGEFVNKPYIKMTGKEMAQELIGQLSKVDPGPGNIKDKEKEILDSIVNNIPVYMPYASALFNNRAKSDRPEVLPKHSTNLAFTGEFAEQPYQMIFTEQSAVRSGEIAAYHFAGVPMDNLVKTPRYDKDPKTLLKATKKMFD

[4] = molecular target: T4, LAH of Lactobacillus spicheri (linoleate 10-hydratase, 10-LAH) (Levilactobacillus spicheri, UniProt A0A0F3RUK6)
T4 construct: gene lai; full length, 564 residues; His-tag from pET-28a(+) (EcoRI/NotI); primers encode MVKTKAVM... and ...ATKKMFS
T4 sequence (A0A0F3RUK6 1-564): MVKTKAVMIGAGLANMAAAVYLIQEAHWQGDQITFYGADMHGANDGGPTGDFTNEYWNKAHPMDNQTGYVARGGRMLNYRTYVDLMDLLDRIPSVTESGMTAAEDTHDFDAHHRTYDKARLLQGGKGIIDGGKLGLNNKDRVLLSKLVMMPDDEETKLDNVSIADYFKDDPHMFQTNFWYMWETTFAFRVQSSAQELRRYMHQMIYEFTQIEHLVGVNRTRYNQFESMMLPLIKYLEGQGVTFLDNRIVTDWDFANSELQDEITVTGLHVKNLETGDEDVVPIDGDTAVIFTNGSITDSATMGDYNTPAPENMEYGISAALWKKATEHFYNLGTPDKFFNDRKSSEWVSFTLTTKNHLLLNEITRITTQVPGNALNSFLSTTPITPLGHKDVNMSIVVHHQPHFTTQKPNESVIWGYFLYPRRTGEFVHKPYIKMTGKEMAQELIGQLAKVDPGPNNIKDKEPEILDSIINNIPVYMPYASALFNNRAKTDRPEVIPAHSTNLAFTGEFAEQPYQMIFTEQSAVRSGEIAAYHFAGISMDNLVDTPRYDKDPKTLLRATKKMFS

**Q.** `Cc1cc2nc3c(=O)[nH]c(=O)nc-3n(C[C@H](O)[C@H](O)[C@H](O)COP(=O)(O)OP(=O)(O)OC[C@H]3O[C@@H](n4cnc5c(N)ncnc54)[C@H](O)[C@@H]3O)c2cc1C` [FAD] was tested. Which “activity of apoenzyme after addition of FAD, LC-APPI-MS” value (shortened to “activity of apoenzyme”) [1] did it give?
**A.** The value was “The addition of cofactor FAD to apoenzyme was essential for activity”.

**Q.** And the “activity of apoenzyme” value [2]?
**A.** Its value is “The addition of cofactor FAD to apoenzyme was essential for activity”.

**Q.** And the “activity of apoenzyme” value [3]?
**A.** The value was “The addition of cofactor FAD to apoenzyme was essential for activity”.

**Q.** What about the “activity of apoenzyme” value [4] of the same compound?
**A.** Its value is “The addition of cofactor FAD to apoenzyme was essential for activity”.
